Reference: PMC7614683, “A small molecule PI3Kα activator for cardioprotection and neuroregeneration” (Nature, 2023)

How the values were obtained:
A549 cells = assay: Phosphoinositide quantification by mass spectrometry, A549; format: cell-based, human; conditions: A549, 2 min
Experimental: A549 cells (5.10^5) or wild-type MEFs (3.10^5) were plated in complete media onto 3.5 cm dishes or 60 mm dishes respectively for 24 h, prior to FCS-free starvation media for 16 h. MEFs, in addition, were supplemented with arachidonic acid in the FCS-free starvation media as previously described. […] Reactions were terminated in 600 μl ice-cold 1 M HCl and cells scraped and resuspended, then divided into two equal samples in eppendorfs. […] The data are shown as response ratios, calculated by normalizing the multiple reaction monitoring (MRM)-targeted lipid integrated response area to that of a known amount of relevant internal standard. To account for any cell input variability, PIP3 response ratios were normalized to C38:4-PI response ratios; while PI(3,4)P2 response ratios were normalised to PI(4,5)P2 response ratios. Data shown are mean ±SD for n ≥3, except for non-DMSO control in MEF PIP3 measurements where n=1.

PI3Kα-WT MEFs [1] = assay: Mass spectrometry-based phosphoproteomics, PI3Kα-WT MEFs; format: cell-based, mouse; conditions: for number of differentially phosphorylated peptides/sites relative to DMSO: 1938 5 μM or insulin 100 nM
Experimental: PI3Kα-WT and PI3Kα-KO MEFs, grown in 15 cm dishes, were serum-starved overnight in DMEM with 1% penicillin-streptomycin and stimulated by the addition of 0.05% DMSO, 5 μM 1938 in final 0.05% DMSO or 100 nM insulin (Sigma #I5016) for 15 min or 4 h. Cells were lysed in 500 μl urea lysis buffer [50 mM triethylammonium bicarbonate, 8 M urea, cOmplete™ EDTA-free protease inhibitor cocktail (1:50 dilution) (Roche #11873580001), 1 PhosSTOP tablet (Roche #4906845001) per 10 ml of lysis buffer, 1 mM sodium orthovanadate] and lysates sonicated until clear for ~10 min with cooling breaks on ice. Protein concentration was measured using a BCA protein assay (Pierce #23227). 300 μg of protein was reduced with 5 mM Tris(2-carboxyethyl)phosphine hydrochloride (Sigma #C4706) at 37°C for 20 min and alkylated using 10 mM 2-chloroacetamide (Sigma #22790) for 20 min at room temperature in the dark. Proteins were digested with LysC (#129-02541; FUJIFILM Wako Chemicals, Osaka, Japan) for 3.5 h at 30°C. Samples were then diluted with 50 mM triethylammonium bicarbonate (Sigma #T7408) to reduce the urea concentration to 1.5 M, followed by an overnight peptide digestion with trypsin (Promega #V5113) at 37°C. Digest reactions were quenched by the addition of 10% trifluoroacetic acid (EMD Millipore #302031-M) to a final pH of 2.0. Sample desalting was performed using 35-350 μg C18 columns (HMM S18V; The Nest Group, Inc., Southborough, MA, USA) according to the manufacturer’ specifications. TiO2 (Hichrome Titansphere TiO2, 10 μm capacity, 100 mg, GL Sciences #5020-75010) was used for phosphoenrichment. Following peptide loading onto TiO2, the beads were sequentially washed with 1 M glycolic acid (Sigma #124737)/80% acetonitrile/5% trifluoroacetic acid, followed by 80% acetonitrile/0.2% trifluoroacetic acid and 20% acetonitrile before elution with 5% ammonium hydroxide. Enriched samples were desalted using 7-70 μg C18 columns (HUM S18V; The Nest Group, Inc., Southborough, MA, USA) according to the manufacturer’s specifications. Dried phosphopeptide samples were stored at -80°C and resuspended in 10% formic acid immediately prior to analysis. nLC-MS/MS was performed on a Q-Exactive Orbitrap Plus interfaced to a NANOSPRAY FLEX ion source and coupled to an Easy-nLC 1000 (Thermo Scientific). Fifty percent of each sample was analysed as 10 μl injections. Peptides were separated on a 27 cm fused silica emitter, 75 μm diameter, packed in-house with Reprosil-Pur 200 C18-AQ, 2.4 μm resin (Dr. Maisch, Ammerbuch-Entringen, Germany) using a linear gradient from 5% to 30% acetonitrile/0.1% formic acid over 180 min, at a flow rate of 250 nl/min. Peptides were ionised by electrospray ionisation using 1.9 kV applied immediately prior to the analytical column via a microtee built into the nanospray source with the ion transfer tube heated to 320°C and the S-lens set to 60%. Precursor ions were measured in a data-dependent mode in the orbitrap analyser at a resolution of 70,000 and a target value of 3e6 ions. The ten most intense ions from each MS1 scan were isolated, fragmented in the HCD cell, and measured in the Orbitrap at a resolution of 17,500.
Raw data were analysed with MaxQuant[72] (version 1.5.5.1) where they were searched against the mouse UniProt database (http://www.uniprot.org/, downloaded 04/12/2018) using default settings. Carbamidomethylation of cysteines was set as fixed modification, and oxidation of methionines, acetylation at protein N-termini, phosphorylation (on S, T or Y) were set as variable modifications. Enzyme specificity was set to trypsin with maximally 2 missed cleavages allowed. To ensure high confidence identifications, peptide-spectral matches, peptides, and proteins were filtered at a less than 1% false discovery rate (FDR). Label-free quantification in MaxQuant was used with a LFQ minimum ratio count of 2, Fast LFQ selected and the ‘skip normalisation’ option selected. […]

PI3Kα-WT MEFs [2] = assay: Cell number by crystal violet staining, PI3Kα-WT MEFs; format: cell-based, mouse; conditions: 24h
Experimental: MEFs were seeded at 5000 cells per well in 96-well plates in DMEM supplemented with 10% FBS and 1% P/S, and allowed to attach overnight. The next day, cells were serum-starved for 5 h prior to compound addition in fresh serum-free DMEM. After different time points, cells were rapidly washed with distilled H2O before fixed and stained in a solution of 0.5% crystal violet (Sigma-Aldrich #C0775) in 20% methanol (v:v) as described. Briefly, after 20 min incubation at room temperature on a rocking platform, fixed and stained cells were washed 3 times with distilled H2O and plates air-dried overnight. 200 μl methanol was next added to each well and the plates were incubated at room temperature for 20 min on a bench rocker, followed by measurement of optical density at 570 with a plate reader.

Question: `CCN1CCN(c2ccc(Nc3cc(Nc4cccc5c4N(C(C)=O)CC5)ccn3)cc2)CC1` [Compound 1938] was tested. Which “concentration at which the PIP3 response maxed out” value (A549 cells) did it give?
Answer: 10 µM

Question: And the “number of differentially phosphorylated peptides/sites relative to DMSO” value (PI3Kα-WT MEFs [1]; 15 min)?
Answer: 27

Question: And the “number of differentially phosphorylated peptides/sites relative to DMSO” value (PI3Kα-WT MEFs [1]; 4h)?
Answer: 50

Question: And the “log2FC, PI3Ka WT 4 h 1938 vs PI3Ka WT DMSO” value (PI3Kα-WT MEFs [1]; phosphosite Cask_S544)?
Answer: Inf

Question: And the “log2FC, PI3Ka WT 15’ 1938 vs PI3Ka WT DMSO” value (PI3Kα-WT MEFs [1]; phosphosite Cask_S545)?
Answer: -0.1674

Question: And the “log2FC, PI3Ka WT 4 h 1938 vs PI3Ka WT DMSO” value (PI3Kα-WT MEFs [1]; phosphosite Cask_S545)?
Answer: -0.01008

Question: What about the “log2FC, PI3Ka WT 15’ 1938 vs PI3Ka WT DMSO” value (PI3Kα-WT MEFs [1]; phosphosite Gm42715_S1683) of the same compound?
Answer: 1.032

Question: What about the “log2FC, PI3Ka WT 4 h 1938 vs PI3Ka WT DMSO” value (PI3Kα-WT MEFs [1]; phosphosite Gm42715_S1683) of the same compound?
Answer: 0.9181

Question: What about the “cell number (crystal violet staining)” value (PI3Kα-WT MEFs [2]) of the same compound?
Answer: increase in cell number

Question: Which PIP3 response (A549 cells) does the source give for “insulin: insulin, canonical activator of PI3Kα, used as positive control” here?
Answer: strong PIP3 response

Question: And the “number of differentially phosphorylated peptides/sites relative to DMSO” value (PI3Kα-WT MEFs [1]; 15 min)?
Answer: 11

Question: And the “number of differentially phosphorylated peptides/sites relative to DMSO” value (PI3Kα-WT MEFs [1]; 4h)?
Answer: 18

Question: What about the “log2FC, PI3Ka WT 15’ Insulin vs PI3Ka WT DMSO” value (PI3Kα-WT MEFs [1]; phosphosite Cask_S545) of the same compound?
Answer: -0.06497

Question: What about the “log2FC, PI3Ka WT 4 h Insulin vs PI3Ka WT DMSO” value (PI3Kα-WT MEFs [1]; phosphosite Cask_S545) of the same compound?
Answer: -0.07238

Question: And the “log2FC, PI3Ka WT 15’ Insulin vs PI3Ka WT DMSO” value (PI3Kα-WT MEFs [1]; phosphosite Gm42715_S1683)?
Answer: 0.5546

Question: What about the “log2FC, PI3Ka WT 4 h Insulin vs PI3Ka WT DMSO” value (PI3Kα-WT MEFs [1]; phosphosite Gm42715_S1683) of the same compound?
Answer: 1.083

Question: What about the “cell number (crystal violet staining)” value (PI3Kα-WT MEFs [2]) of the same compound?
Answer: did not induce cell cycle progression and an increase in cell number
